Test system: collagen-induced arthritis (CIA) in DBA-1 mice
Experiment: Oral collagen II preparation in mouse collagen-induced arthritis model, Example 10
Assay type: in vivo
Conditions: 20 ug dose, oral gavage 4 times before CIA induction; FIGS. 1 and 2
Method: • 1. Ten-twelve week old male DBA-1 mice were weighed and divided into 3 groups (n=8/group) as outlined below. All groups were treated orally (by gavage) 4 times (days −10, −7, −5 & −3) prior to induction of collagen-induced arthritis (CIA) by injection of 100 ug collagen in Complete Freunds Adjuvant at the base of the tail. • 2. Arthritis was induced in all animals on day 0, followed by a boost on day 21, and incidence and severity assessed and scored on days 5, 7, 9, 12, 14, 16, 19 and 21 after the boost. Three treatment groups with 8 animals per group were used as outlined below: • (i). CIA+gavage with oil alone • (ii). CIA+gavage with oil containing bovine collagen II (10 μg/dose) • (iii). CIA+gavage with bovine collagen II ([…])
Clinical scores of arthritis incidence (% of animals in each group affected with arthritis of any severity in any number of joints) and arthritis severity (the severity of disease in each individual mouse) was performed after CIA induction for the duration of the experiment. A standard arthritis scoring system was used as outlined below. Each paw is evaluated for swelling and deformity, scored and a total calculated for each animal.
Score 0: No arthritis Score 1:1-2 toes affected only Score 2: 3 or >toes and/or swelling of the paw (metacarpus/metatarsus) Score 3: swelling of the carpus/tarsus Score 4: deformity with ankylosis of the carpus/tarsus • 3. […]

## collagen alone: bovine collagen II given by gavage without oil formulation
  number of animals suffering from arthritis (incidence): reduction in the number of animals suffering from arthritis

Reference: patent publication US20140154315A1, “Hydrophobic Preparations” (VAXCINE LTD., priority 2011, published 2014)
